Test results reported in BindingDB's records for doi:10.1021/jm00150a026 (1985).

molecular target: Dihydrofolate reductase (Escherichia coli, UniProt P0ABQ4); assay: Inhibition of Escherichia coli dihydrofolate reductase.
Sequence (P0ABQ4 whole entry, looked up): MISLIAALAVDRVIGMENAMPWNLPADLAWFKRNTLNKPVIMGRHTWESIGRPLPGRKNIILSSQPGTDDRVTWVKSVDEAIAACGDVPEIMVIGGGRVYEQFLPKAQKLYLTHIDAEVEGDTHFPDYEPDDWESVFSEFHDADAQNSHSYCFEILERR

In order of falling Ki:
1. CCCCCCCCCCCCCCOc1cccc(N2C(N)=NC(N)=NC2(C)C)c1 [6,6-Dimethyl-1-(3-tetradecyloxy-phenyl)-1,6-dihydro-[1,3,5]triazine-2,4-diamine]  1.41 µM
2. CCCCCCCCCCCCOc1cccc(N2C(N)=NC(N)=NC2(C)C)c1  1.32 µM
3. CC1(C)N=C(N)N=C(N)N1c1cccc(COc2cccc(NC(N)=O)c2)c1 [{3-[3-(4,6-Diamino-2,2-dimethyl-2H-[1,3,5]triazin-1-yl)-benzyloxy]-phenyl}-urea]  1.23 µM
4. CCc1cccc(OCc2cccc(N3C(N)=NC(N)=NC3(C)C)c2)c1 [1-[3-(3-Ethyl-phenoxymethyl)-phenyl]-6,6-dimethyl-1,6-dihydro-[1,3,5]triazine-2,4-diamine]  1.12 µM
5. CC1(C)N=C(N)N=C(N)N1c1cccc(COc2cccc(Cl)c2)c1 [1-[3-(3-Chloro-phenoxymethyl)-phenyl]-6,6-dimethyl-1,6-dihydro-[1,3,5]triazine-2,4-diamine]  0.977 µM
6. COc1cccc(OCc2cccc(N3C(N)=NC(N)=NC3(C)C)c2)c1 [1-[3-(3-Methoxy-phenoxymethyl)-phenyl]-6,6-dimethyl-1,6-dihydro-[1,3,5]triazine-2,4-diamine]  0.955 µM
7. CC1(C)N=C(N)N=C(N)N1c1cccc(COc2cccc(C#N)c2)c1 [3-[3-(4,6-Diamino-2,2-dimethyl-2H-[1,3,5]triazin-1-yl)-benzyloxy]-benzonitrile]  0.891 µM
8. CC(C)(C)c1cccc(OCc2cccc(N3C(N)=NC(N)=NC3(C)C)c2)c1  0.871 µM
9. CC1(C)N=C(N)N=C(N)N1c1cccc(OCc2ccc(Cl)c(Cl)c2)c1  0.708 µM
10. CC1(C)N=C(N)N=C(N)N1c1cccc(COc2cccc(NC(N)=S)c2)c1  0.676 µM
11. CCCCCCCCCCCOc1cccc(N2C(N)=NC(N)=NC2(C)C)c1 [6,6-Dimethyl-1-(3-undecyloxy-phenyl)-1,6-dihydro-[1,3,5]triazine-2,4-diamine]  0.646 µM
12. CC1(C)N=C(N)N=C(N)N1c1cccc(COc2cccc(CO)c2)c1 [{3-[3-(4,6-Diamino-2,2-dimethyl-2H-[1,3,5]triazin-1-yl)-benzyloxy]-phenyl}-methanol]  0.646 µM
13. Cc1cccc(OCc2cccc(N3C(N)=NC(N)=NC3(C)C)c2)c1 [6,6-Dimethyl-1-(3-m-tolyloxymethyl-phenyl)-1,6-dihydro-[1,3,5]triazine-2,4-diamine]  0.537 µM
